Legend:
BMP-2 promoter = assay: ABA assay: BMP-2 promoter-luciferase reporter in 2T3-BMP-2-LUC osteoblast cells; format: cell-based, mouse
Method: These transformed cells are then evaluated for the production of the reporter gene product; compounds that activate the BMP promoter will drive production of the reporter protein, which can be readily assayed.
The cells were cultured using α-MEM, 10% FCS with 1% penicillin/streptomycin and 1% glutamine (“plating medium”), and were split 1:5 once per week. For the assay, the cells were resuspended in a plating medium containing 4% FCS, plated in microtiter plates at a concentration of 5×10^3 cells (in 50 μl)/well, and incubated for 24 hours at 37° C. in 5% CO2. To initiate the assay, 50 μl of the test compound or the control in DMSO was added at 2× concentration to each well, so that the final volume was 100 μl. The final serum concentration was 2% FCS, and the final DMSO concentration was 1%.
The treated cells were incubated for 24 hours at 37° C. and 5% CO2. The medium was then removed, and the cells were rinsed three times with PBS. After removal of excess PBS, 25 μl of 1× cell culture lysing reagent (Promega #E153A) was added to each well and incubated for at least ten minutes. Optionally, the plates/samples could be frozen at this point. To each well was added 50 μl of luciferase substrate (Promega #E152A; 10 ml Promega luciferase assay buffer per 7 mg Promega luciferase assay substrate). Luminescence was measured on an automated 96-well luminometer, and was expressed as either picograms of luciferase activity per well or as picograms of luciferase activity per microgram of protein.
Alternatively, the reactivity of a compound to be tested can be compared directly to a negative control containing no compound.

[1] = system: serum response element (SRE)-luciferase reporter gene / CRE-luciferase reporter gene; assay: negative control OBSRE (SRE-luciferase) and/or glucagon (CRE-luciferase) assays; format: cell-based, murine
Description: In the negative control OBSRE assay, a murine osteoblast cell line, such as CCC-4 expressing a serum response element (SRE)-luciferase reporter gene is used (see WO96/07733). In the negative control glucagon assay, a glucagon receptor-positive BHK cell expressing a CRE-luciferase reporter gene is used (see U.S. Pat. No. 5,698,672).

murine calvariae = details: reports by R. G. G. Russell and colleagues; cited from earlier work
[2] = Experiment 2, 0.097656 μM, 0.038085 μg/ml
[3] = Experiment 2, 0.195312 μM, 0.076171 μg/ml
[4] = Experiment 2, 0.390625 μM, 0.152343 μg/ml
[5] = Experiment 2, 0.78125 μM, 0.304687 μg/ml
[6] = Experiment 2, 1.5625 μM, 0.609375 μg/ml
[7] = Experiment 2, 3.125 μM, 1.21875 μg/ml
[8] = Experiment 2, 6.25 μM, 2.4375 μg/ml
[9] = Experiment 2, 12.5 μM, 4.875 μg/ml
[10] = Experiment 2, 25 μM, 9.75 μg/ml
[11] = Experiment 2, 50 μM, 19.5 μg/ml

For `CCC(C)(C)C(=O)O[C@H]1C[C@@H](C)C=C2C=C[C@H](C)[C@H](CC[C@@H](O)C[C@@H](O)CC(=O)O)[C@H]21` [Hydrolyzed simvastatin, hydrolyzed simvastatin], the “dose-dependent stimulatory effect in the ABA assay” value (BMP-2 promoter) was “dose-dependent stimulatory effect”, the “% 59-0008 Response” value (BMP-2 promoter; Experiment 1, 0.195312 μg/ml) was −0.680% and the “Fold increase over negative control” value (BMP-2 promoter; Experiment 1, 0.195312 μg/ml) was 0.9 fold. The “% 59-0008 Response” value (BMP-2 promoter; Experiment 1, 0.390625 μg/ml) was 1.520%, the “Fold increase over negative control” value (BMP-2 promoter; Experiment 1, 0.390625 μg/ml) was 1.1 fold and the “% 59-0008 Response” value (BMP-2 promoter; Experiment 1, 0.78125 μg/ml) was 10.430%. The “Fold increase over negative control” value (BMP-2 promoter; Experiment 1, 0.78125 μg/ml) was 1.6 fold, the “% 59-0008 Response” value (BMP-2 promoter; Experiment 1, 1.5625 μg/ml) was 36.190% and the “Fold increase over negative control” value (BMP-2 promoter; Experiment 1, 1.5625 μg/ml) was 3.4 fold. For the same molecule, the “% 59-0008 Response” value (BMP-2 promoter; Experiment 1, 3.125 μg/ml) was 75.860%, the “Fold increase over negative control” value (BMP-2 promoter; Experiment 1, 3.125 μg/ml) was 6.0 fold and the “% 59-0008 Response” value (BMP-2 promoter; Experiment 1, 6.25 μg/ml) was 150.260%. The “Fold increase over negative control” value (BMP-2 promoter; Experiment 1, 6.25 μg/ml) was 10.9 fold, the “% 59-0008 Response” value (BMP-2 promoter; Experiment 1, 12.5 μg/ml) was 156.230% and the “Fold increase over negative control” value (BMP-2 promoter; Experiment 1, 12.5 μg/ml) was 11.3 fold. For the same molecule, the “% 59-0008 Response” value (BMP-2 promoter; Experiment 1, 25 μg/ml) was 200.230%, the “Fold increase over negative control” value (BMP-2 promoter; Experiment 1, 25 μg/ml) was 14.3 fold and the “% 59-0008 Response” value (BMP-2 promoter; Experiment 1, 50 μg/ml) was 44.520%. The “Fold increase over negative control” value (BMP-2 promoter; Experiment 1, 50 μg/ml) was 3.9 fold, the “% 59-0008 Response” value (BMP-2 promoter; Experiment 1, 100 μg/ml) was −15.230% and the “Fold increase over negative control” value (BMP-2 promoter; Experiment 1, 100 μg/ml) was −0.0 fold. For the same molecule, the “% 59-0008 Response” value (BMP-2 promoter; Experiment 1, 200 μg/ml) was −15.140%, the “Fold increase over negative control” value (BMP-2 promoter; Experiment 1, 200 μg/ml) was −0.0 fold and the “dose-dependent stimulatory effect in control assays” value [1] was “not in control assays”.

For `CC[C@H](C)C(=O)O[C@H]1CCC=C2C=C[C@H](C)[C@H](CC[C@@H]3C[C@@H](O)CC(=O)O3)[C@H]21` [Mevastatin, mevastatin], the “inhibition of bone resorption in murine calvariae in vitro” value (murine calvariae) is given as “inhibits bone resorption”, the “dose-dependent stimulatory effect in the ABA assay” value (BMP-2 promoter) is given as “dose-dependent stimulatory effect” and the “% 59-0008 Response” value (BMP-2 promoter; Experiment 1, 0.195312 μg/ml) is given as 25.840%. The “Fold increase over negative control” value (BMP-2 promoter; Experiment 1, 0.195312 μg/ml) was 2.144 fold, the “% 59-0008 Response” value (BMP-2 promoter; Experiment 1, 0.390625 μg/ml) was 15.650% and the “Fold increase over negative control” value (BMP-2 promoter; Experiment 1, 0.390625 μg/ml) was 1.693 fold. For the same molecule, the “% 59-0008 Response” value (BMP-2 promoter; Experiment 1, 0.78125 μg/ml) was 34.520%, the “Fold increase over negative control” value (BMP-2 promoter; Experiment 1, 0.78125 μg/ml) was 2.528 fold and the “% 59-0008 Response” value (BMP-2 promoter; Experiment 1, 1.5625 μg/ml) was 47.630%. The “Fold increase over negative control” value (BMP-2 promoter; Experiment 1, 1.5625 μg/ml) was 3.103 fold, the “% 59-0008 Response” value (BMP-2 promoter; Experiment 1, 3.125 μg/ml) was 99.670% and the “Fold increase over negative control” value (BMP-2 promoter; Experiment 1, 3.125 μg/ml) was 5.413 fold. The “% 59-0008 Response” value (BMP-2 promoter; Experiment 1, 6.25 μg/ml) was 140.260%, the “Fold increase over negative control” value (BMP-2 promoter; Experiment 1, 6.25 μg/ml) was 7.210 fold and the “% 59-0008 Response” value (BMP-2 promoter; Experiment 1, 12.5 μg/ml) was 164.730%. The “Fold increase over negative control” value (BMP-2 promoter; Experiment 1, 12.5 μg/ml) was 8.293 fold, the “% 59-0008 Response” value (BMP-2 promoter; Experiment 1, 25 μg/ml) was 152.690% and the “Fold increase over negative control” value (BMP-2 promoter; Experiment 1, 25 μg/ml) was 7.760 fold. For the same molecule, the “% 59-0008 Response” value (BMP-2 promoter; Experiment 1, 50 μg/ml) was 153.110%, the “Fold increase over negative control” value (BMP-2 promoter; Experiment 1, 50 μg/ml) was 7.779 fold and the “% 59-0008 Response” value (BMP-2 promoter; Experiment 1, 100 μg/ml) was 12.460%. For the same molecule, the “Fold increase over negative control” value (BMP-2 promoter; Experiment 1, 100 μg/ml) was 1.552 fold, the “% 59-0008 Response” value (BMP-2 promoter; Experiment 1, 200 μg/ml) was −1.600% and the “Fold increase over negative control” value (BMP-2 promoter; Experiment 1, 200 μg/ml) was 0.929 fold. For the same molecule, the “% 59-0008 Response” value (BMP-2 promoter; [2]) was 2.880%, the “Fold increase over negative control” value (BMP-2 promoter; [2]) was 1.1 fold and the “% 59-0008 Response” value (BMP-2 promoter; [3]) was −0.090%. The “Fold increase over negative control” value (BMP-2 promoter; [3]) was 0.9 fold, the “% 59-0008 Response” value (BMP-2 promoter; [4]) was 0.960% and the “Fold increase over negative control” value (BMP-2 promoter; [4]) was 1.0 fold. The “% 59-0008 Response” value (BMP-2 promoter; [5]) was 2.370%, the “Fold increase over negative control” value (BMP-2 promoter; [5]) was 1.1 fold and the “% 59-0008 Response” value (BMP-2 promoter; [6]) was 9.780%. For the same molecule, the “Fold increase over negative control” value (BMP-2 promoter; [6]) was 1.6 fold, the “% 59-0008 Response” value (BMP-2 promoter; [7]) was 10.970% and the “Fold increase over negative control” value (BMP-2 promoter; [7]) was 1.7 fold. The “% 59-0008 Response” value (BMP-2 promoter; [8]) was 36.210%, the “Fold increase over negative control” value (BMP-2 promoter; [8]) was 3.4 fold and the “% 59-0008 Response” value (BMP-2 promoter; [9]) was 66.010%. For the same molecule, the “Fold increase over negative control” value (BMP-2 promoter; [9]) was 5.3 fold, the “% 59-0008 Response” value (BMP-2 promoter; [10]) was 71.630% and the “Fold increase over negative control” value (BMP-2 promoter; [10]) was 5.7 fold. The “% 59-0008 Response” value (BMP-2 promoter; [11]) was 97.420%, the “Fold increase over negative control” value (BMP-2 promoter; [11]) was 7.4 fold and the “% 59-0008 Response” value (BMP-2 promoter; Experiment 2, 100 μM, 39 μg/ml) was 88.860%. For the same molecule, the “Fold increase over negative control” value (BMP-2 promoter; Experiment 2, 100 μM, 39 μg/ml) was 6.9 fold and the “dose-dependent stimulatory effect in control assays” value [1] was “not in control assays”.

From US6642216B2, “Isoprenoid pathway inhibitors for stimulating bone growth” (ZymoGenetics Corporation, priority 1996, dated 2003)
